Results reported in PubChem BioAssay AID1963448 (Molecular Pharmacology Branch, DTP, NCI, 2024).
“And” between values parts separate entries of the source, which are not always exact repeats. Equal entries are not always repeated.

Tested on: 616215-338-R-J1-PDC complex spheroid growth, % test/control
Assay: Anticancer human tumor 616215-338-R-J1-PDC patient-derived colon adenocarcinoma cell line growth inhibition [Asc]
Details: for viability, T/C: stronger effect = lower value; active means viability on the fitted dose curve at most 10% of control; inactive means the rest
Summary of the method: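 Stromal components (HUVEC and hMSC) are co-assembled with the cancer cells into multicellular spheroids. Drugs are then added singly or paired, at concentrations falling by half-log increments from a clinically achievable maximum, capped at 10 microM without known Cmax.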

[1] = curve of first compound, second compound 0.1 µM
[2] = curve of first compound, second compound 0.316 µM
[3] = curve of first compound, second compound 1 µM
[4] = second compound 0.1 µM, first compound 0.0316 µM
[5] = second compound 0.1 µM, first compound 0.1 µM
[6] = second compound 0.1 µM, first compound 0.316 µM
[7] = second compound 0.1 µM, first compound 1 µM
[8] = second compound 0.316 µM, first compound 0.0316 µM
[9] = second compound 0.316 µM, first compound 0.1 µM
[10] = second compound 0.316 µM, first compound 0.316 µM
[11] = second compound 0.316 µM, first compound 1 µM
[12] = second compound 1 µM, first compound 0.0316 µM
[13] = second compound 1 µM, first compound 0.1 µM
[14] = second compound 1 µM, first compound 0.316 µM
[15] = second compound 1 µM, first compound 1 µM
[16] = curve of first compound, second compound 3.16 µM
[17] = curve of first compound, second compound 10 µM
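Further: spheroids exposed to agents for seven days before readout.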
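Wherever viability, T/C is given: 100% = DMSO vehicle control viability.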

O=C(c1ccc(F)c(F)c1Nc1ccc(I)cc1F)N1CC(O)([C@@H]2CCCCN2)C1 + CNC(C)C(=O)NC1CN(S(=O)(=O)c2cccc(S(=O)(=O)N3CCC4CCC(C(=O)NC(c5ccccc5)c5ccccc5)N4C(=O)C(NC(=O)C(C)NC)C3)c2)CCC2CCC(C(=O)NC(c3ccccc3)c3ccccc3)N2C1=O
inactive: viability, T/C (second compound 0.00316 µM, first compound 0.00316 µM) 113% | viability, T/C (second compound 0.00316 µM, first compound 0.01 µM) 94.8% | viability, T/C (second compound 0.00316 µM, first compound 0.0316 µM) 64.3% | viability, T/C (second compound 0.01 µM, first compound 0.00316 µM) 98.9% | viability, T/C (second compound 0.01 µM, first compound 0.01 µM) 109% | viability, T/C (second compound 0.0316 µM, first compound 0.00316 µM) 103% | viability, T/C (second compound 0.0316 µM, first compound 0.01 µM) 87.8% | viability, T/C (second compound 0.0316 µM, first compound 0.0316 µM) 71.4% | viability, T/C (second compound 0.1 µM, first compound 0.00316 µM) 99.6% | viability, T/C (second compound 0.1 µM, first compound 0.01 µM) 99.8% | viability, T/C [4] 70.7% | viability, T/C (second compound 0.316 µM, first compound 0.00316 µM) 109% | viability, T/C (second compound 0.316 µM, first compound 0.01 µM) 107% | viability, T/C [8] 56% | viability, T/C [9] 14.7% | viability, T/C (second compound 1 µM, first compound 0.00316 µM) 102% | viability, T/C (second compound 1 µM, first compound 0.01 µM) 106% | viability, T/C [12] 32.9%
active: viability, T/C (second compound 0.00316 µM, first compound 0.1 µM) 3.19% | viability, T/C (second compound 0.00316 µM, first compound 0.316 µM) 0.64% | viability, T/C (second compound 0.00316 µM, first compound 1 µM) 0.34% | viability, T/C (second compound 0.01 µM, first compound 0.0316 µM) 8.64% | viability, T/C (second compound 0.01 µM, first compound 0.1 µM) 18.4% | viability, T/C (second compound 0.01 µM, first compound 0.316 µM) 2.31% | viability, T/C (second compound 0.01 µM, first compound 1 µM) 2.27% | viability, T/C (second compound 0.0316 µM, first compound 0.1 µM) 8.55% | viability, T/C (second compound 0.0316 µM, first compound 0.316 µM) 1.84% | viability, T/C (second compound 0.0316 µM, first compound 1 µM) 1.89% | viability, T/C [5] 1.22% | viability, T/C [6] 0.55% | viability, T/C [7] 1.32% | viability, T/C [10] 2.54% | viability, T/C [11] 1.35% | viability, T/C [13] 1.86% | viability, T/C [14] 0.87% | viability, T/C [15] 1.24%
46.6 nM: IC50 (curve of first compound, second compound 0.0316 µM)
19.2 nM: IC50 (curve of first compound, second compound 0.01 µM)
40.6 nM: IC50 (curve of first compound, second compound 0.00316 µM)
38.5 nM: IC50 [2]
24 nM: IC50 [3]
44.6 nM: IC50 [1]

NC1CCC(NC2CC2c2ccccc2)CC1 (stereo not given)
inactive: viability, T/C (compound 0.000316 µM) 96.5% and 100% and 109% | viability, T/C (compound 0.001 µM) 102% (2×) and 97.4% | viability, T/C (compound 0.00316 µM) 90.4% and 95.5% and 101% | viability, T/C (compound 0.01 µM) 92.3% and 96.8% and 93.5% | viability, T/C (compound 0.0316 µM) 91.6% and 91.8% and 99.5% | viability, T/C (compound 0.1 µM) 92.8% and 94.4% and 97.4%
> 100 nM: IC50 (curve of compound)

CCN1C(C(=O)NC23CCC(C(=O)O)(CC2)CC3)C(c2cccc(Cl)c2F)C2(C(=O)Nc3cc(Cl)ccc32)C12CCCCC2 (stereo not given) + Cc1c(S(C)(=O)=O)c(-c2cc(F)cc(N3CCN(c4ccc(NS(=O)(=O)c5ccc(NC(CCN6CCC(C(=O)OCCCP(=O)(O)O)CC6)CSc6ccccc6)c(S(=O)(=O)C(F)(F)F)c5)cc4)CC3)c2)c(-c2ccc(Cl)cc2)n1C(C)C
123 nM: IC50 [2]
490 nM: IC50 [1]
< 9.49 nM: IC50 [16] | IC50 [17]
active: viability, T/C (second compound 0.1 µM, first compound 3 µM) 2.3% | viability, T/C (second compound 0.316 µM, first compound 0.949 µM) 3.82% | viability, T/C (second compound 0.316 µM, first compound 3 µM) 0.48% | viability, T/C (second compound 1 µM, first compound 0.3 µM) 7.2% | viability, T/C (second compound 1 µM, first compound 0.949 µM) 2.56% | viability, T/C (second compound 1 µM, first compound 3 µM) 0.18% | viability, T/C (second compound 3.16 µM, first compound 0.03 µM) 5.05% | viability, T/C (second compound 3.16 µM, first compound 0.0949 µM) 1.2% | viability, T/C (second compound 3.16 µM, first compound 0.3 µM) 0.74% | viability, T/C (second compound 3.16 µM, first compound 0.949 µM) 0.06% | viability, T/C (second compound 3.16 µM, first compound 3 µM) 0.2% | viability, T/C (second compound 10 µM, first compound 0.00949 µM) 4.94% | viability, T/C (second compound 10 µM, first compound 0.03 µM) 1.17% | viability, T/C (second compound 10 µM, first compound 0.0949 µM) 0.43% | viability, T/C (second compound 10 µM, first compound 0.3 µM) 0.5% | viability, T/C (second compound 10 µM, first compound 0.949 µM) 1.65% | viability, T/C (second compound 10 µM, first compound 3 µM) 1.41%
11 nM: IC50 [3]
inactive: viability, T/C (second compound 0.1 µM, first compound 0.00949 µM) 92.5% | viability, T/C (second compound 0.1 µM, first compound 0.03 µM) 101% | viability, T/C (second compound 0.1 µM, first compound 0.0949 µM) 77.3% | viability, T/C (second compound 0.1 µM, first compound 0.3 µM) 50.7% | viability, T/C (second compound 0.1 µM, first compound 0.949 µM) 43.3% | viability, T/C (second compound 0.316 µM, first compound 0.00949 µM) 89.4% | viability, T/C (second compound 0.316 µM, first compound 0.03 µM) 81.1% | viability, T/C (second compound 0.316 µM, first compound 0.0949 µM) 51.6% | viability, T/C (second compound 0.316 µM, first compound 0.3 µM) 34.3% | viability, T/C (second compound 1 µM, first compound 0.00949 µM) 53.2% | viability, T/C (second compound 1 µM, first compound 0.03 µM) 29.8% | viability, T/C (second compound 1 µM, first compound 0.0949 µM) 17.1% | viability, T/C (second compound 3.16 µM, first compound 0.00949 µM) 20.3%

O=C(c1cc(Cc2n[nH]c(=O)c3ccccc23)ccc1F)N1CCN(C(=O)C2CC2)CC1 + Cc1c(S(C)(=O)=O)c(-c2cc(F)cc(N3CCN(c4ccc(NS(=O)(=O)c5ccc(NC(CCN6CCC(C(=O)OCCCP(=O)(O)O)CC6)CSc6ccccc6)c(S(=O)(=O)C(F)(F)F)c5)cc4)CC3)c2)c(-c2ccc(Cl)cc2)n1C(C)C
6750 nM: IC50 [2]
active: viability, T/C (second compound 3.16 µM, first compound 3.16 µM) 3.59% | viability, T/C (second compound 3.16 µM, first compound 10 µM) 2.49% | viability, T/C (second compound 10 µM, first compound 1 µM) 3.83% | viability, T/C (second compound 10 µM, first compound 3.16 µM) 1.31% | viability, T/C (second compound 10 µM, first compound 10 µM) 1.84%
inactive: viability, T/C [4] 95.5% | viability, T/C [5] 96% | viability, T/C [6] 92.5% | viability, T/C [7] 92% | viability, T/C (second compound 0.1 µM, first compound 3.16 µM) 89.1% | viability, T/C (second compound 0.1 µM, first compound 10 µM) 78.8% | viability, T/C [8] 88.8% | viability, T/C [9] 90% | viability, T/C [10] 85.4% | viability, T/C [11] 86.5% | viability, T/C (second compound 0.316 µM, first compound 3.16 µM) 66.6% | viability, T/C (second compound 0.316 µM, first compound 10 µM) 41.4% | viability, T/C [12] 72.7% | viability, T/C [13] 67.6% | viability, T/C [14] 59% | viability, T/C [15] 49% | viability, T/C (second compound 1 µM, first compound 3.16 µM) 26.3% | viability, T/C (second compound 1 µM, first compound 10 µM) 10.9% | viability, T/C (second compound 3.16 µM, first compound 0.0316 µM) 34% | viability, T/C (second compound 3.16 µM, first compound 0.1 µM) 30.4% | viability, T/C (second compound 3.16 µM, first compound 0.316 µM) 25.3% | viability, T/C (second compound 3.16 µM, first compound 1 µM) 17.2% | viability, T/C (second compound 10 µM, first compound 0.0316 µM) 20.7% | viability, T/C (second compound 10 µM, first compound 0.1 µM) 18.4% | viability, T/C (second compound 10 µM, first compound 0.316 µM) 11.2%
755 nM: IC50 [3]
> 10000 nM: IC50 [1]
< 31.6 nM: IC50 [16] | IC50 [17]

Cc1c(S(C)(=O)=O)c(-c2cc(F)cc(N3CCN(c4ccc(NS(=O)(=O)c5ccc(NC(CCN6CCC(C(=O)OCCCP(=O)(O)O)CC6)CSc6ccccc6)c(S(=O)(=O)C(F)(F)F)c5)cc4)CC3)c2)c(-c2ccc(Cl)cc2)n1C(C)C (stereo not given)
inactive: viability, T/C (compound 0.1 µM) 89.8% [middle of 14 runs] | viability, T/C (compound 0.316 µM) 88.1% [middle of 14 runs] | viability, T/C (compound 1 µM) 69.6% [middle of 14 runs] | viability, T/C (compound 3.16 µM) 38% [middle of 13 runs] | viability, T/C (compound 10 µM) 27.6% [middle of 14 runs]
1.96 µM [middle of 13 runs]: IC50 (compound alone, run of 10/11/2022)
